Test results taken from paper PMC10703884, “Targeting the COMMD4–H2B protein complex in lung cancer” (British Journal of Cancer, 2023).
No end group written: not given here.

Tests used:
[1] = test system: HBEC3-KT cells; test: Clonogenic cell viability after IR, HBEC3-KT cells; format: cell-based, Human; settings: varying IR doses, 7–10 days recovery, three independent experiments
Protocol: (§1) H1299, CRL5889 and H460 cells were cultured in Roswell Park Memorial Institute (RPMI) 1640 medium (Life Technologies) containing 10% foetal bovine serum (Thermo Fisher Scientific). Human bronchial epithelial cells (HBEC3-KT) were maintained in keratinocyte serum-free medium supplemented with epidermal growth factor and bovine pituitary extract (Life Technologies). The histology features and origin of all cell lines used have been previously described. Cell lines were authenticated using STR profiling. Cells were grown in a humidified incubator at 37 °C/5% CO2 atmosphere. All cell lines were verified to be free of mycoplasma contamination.
(§2) Irradiations were done at room temperature using a ^137Cs source (Gammacell 40 Exactor [MDS Nordion]; dose rate 1.1 Gy/min). Phalloidin-Atto 488 was purchased from Sigma-Aldrich and Hoechst 33342 was purchased from Thermo Fisher Scientific.
(§3) For siRNA transfections, cells were transfected with negative control or COMMD4 siRNA #2 (CCAUGUCCCUCUCAGCAGA[dT][dT] MISSION® siRNA, Sigma-Aldrich) using RNAiMax (Life Technologies) as previously described and samples were analysed 48 to 72 h post-transfection. […] Cells were mock-transfected, or transfected with FLAG-H2BWT/FLAG-H2BMUT1, or COMMD4-FLAG/A70K with FuGENE® HD (Promega) using the manufacturer’s protocol and analysed 24 h post-transfection. […]

[2] = test system: COMMD4; test: FLAG pull-down in control and COMMD4 siRNA depleted cells; format: binding; settings: overexpressed FLAG-H2B after control or COMMD4 siRNA
Protocol: (§4) For siRNA transfections, cells were transfected with negative control or COMMD4 siRNA #2 (CCAUGUCCCUCUCAGCAGA[dT][dT] MISSION® siRNA, Sigma-Aldrich) using RNAiMax (Life Technologies) as previously described and samples were analysed 48 to 72 h post-transfection. The H2B wild-type (FLAG-H2BWT) and mutant (FLAG-H2BMUT1) expression constructs were generated with the 10-amino acid peptide and the corresponding mutant cloned into the expression vector pCDNA3.1/(+)-N-DYK containing an N-terminal FLAG tag and a C-terminal nuclear localisation signal (AAKRVKLDS) (GenScript). A70K FLAG-COMMD4 expression construct was generated by mutating the corresponding COMMD4-FLAG construct to harbour an A70K mutation (GenScript). Cells were mock-transfected, or transfected with FLAG-H2BWT/FLAG-H2BMUT1, or COMMD4-FLAG/A70K with FuGENE® HD (Promega) using the manufacturer’s protocol and analysed 24 h post-transfection.
Co-immunoprecipitations were performed as previously summarised, using ice-cold NP40 buffer. Assays for co-immunoprecipitations were performed at 4 °C from HEK293T, transiently expressing the FLAG-H2B WT or MUT plasmid. Proteins were captured using anti-FLAG M2 Dynabeads (ThermoFisher) and washed three times in NP40 buffer prior to analysis.
To support predicted models, we next designed peptides to perform mapping. […]

[3] = test system: NSCLC cells; test: Immunofluorescence γH2AX and MDC1 foci, NSCLC cells; format: cell-based; settings: 6 Gy IR, 0.5 to 2 h post-IR, 50 cells per condition, three independent experiments
Protocol: as §4
NSCLC and control cells transfected with siRNA or H2B plasmids were grown in optical glass bottom 96-well plates (Cellvis). Post-treatment, cells were pre-extracted with ice-cold extraction buffer (20 mM HEPES (pH 8), 20 mM NaCl, 5 mM MgCl2, 1 mM ATP, 0.5% NP40), to remove the soluble proteins and processed as previous. Images were captured using a Delta Vision PDV microscope 100x/1.42 Oil objective (Applied Precision, Inc). All immunofluorescence figures were assembled using Adobe Photoshop. High-content microscopy was performed using the InCell Analyzer 6500 Imaging System (GE Healthcare Life Sciences). Images were analysed using the InCarta Image Analysis software (GE Healthcare Life Sciences) where a minimum of 50 nuclei were quantified per experiment.
Fig. 4 Induction of DSBs in NSCLC and control cells. a Immunofluorescence staining of H1299 NSCLC cells transfected with control or COMMD4 siRNA #2 and FLAG-H2BWT or FLAG-H2BMUT1 is shown. […]
independent experiments where 50 cells were quantified per condition. γH2AX is shown in […]
mean ± SD from three independent experiments where 50 cells were quantified per condition.

[4] = test system: H460, H1299 and CRL5889 NSCLC cells; test: Clonogenic cell viability after IR, NSCLC cells; format: cell-based; settings: varying IR doses, 7–10 days recovery, three independent experiments, compared to control siRNA or FLAG-H2BMUT1/mock
Protocol: as §1, §2, §3

[5] = test system: HBEC3-KT cells; test: Immunofluorescence γH2AX and MDC1 foci, HBEC3-KT cells; format: cell-based, Human; settings: 6 Gy IR, 50 cells per condition, three independent experiments
Protocol: as §4
NSCLC and control cells transfected with siRNA or H2B plasmids were grown in optical glass bottom 96-well plates (Cellvis). Post-treatment, cells were pre-extracted with ice-cold extraction buffer (20 mM HEPES (pH 8), 20 mM NaCl, 5 mM MgCl2, 1 mM ATP, 0.5% NP40), to remove the soluble proteins and processed as previous. […] Images were analysed using the InCarta Image Analysis software (GE Healthcare Life Sciences) where a minimum of 50 nuclei were quantified per experiment. […]

## FLAG-H2BWT: 10-amino acid peptide cloned into expression vector containing an N-terminal FLAG tag and a C-terminal nuclear localisation signal ({FLAG}-SFVNDIFERIAAKRVKLDS)
[1]
  sensitivity to ionising radiation (clonogenic viability): neither hypersensitive to IR
[2]
  binding to COMMD4 in control or COMMD4 siRNA-depleted cells: binding to COMMD4 was only possible in control siRNA-depleted cells
[3]
  γH2AX and MDC1 (DNA repair) foci: significantly more DNA repair foci
[4]
  sensitivity to ionising radiation (clonogenic viability): resulted in a similar phenotype to COMMD4 siRNA depletion, albeit less pronounced, where hypersensitivity to IR was observed relative to cells expressing the mutant peptide (FLAG-H2BMUT1)
[5]
  γH2AX and MDC1 (DNA repair) foci: exhibited increased DNA repair foci
